Laboratory results as given in the NIST ThermoML archive (doi:10.1021/je900966r).

Experiments:
[1] = mn = molality of the nth substance listed, in mol/kg; conditions: 101 kPa, Liquid
[2] = refractive index (Na D-line) (dimensionless); mn = molality of the nth substance listed, in mol/kg; conditions: 298.15 K, 101 kPa, Liquid, Standard Abbe refractometry

OC[C@@H](O)[C@@H](O)[C@H](O)[C@H](O)CO [mannitol] + O
mass density [kg/m3], [1]
Conditions	m1 = 0.1	m1 = 0.1499	m1 = 0.1999	m1 = 0.25	m1 = 0.3	m1 = 0.35	m1 = 0.4
293.15 K	1004.39	1007.5	1010.61	1013.69	1016.75	1019.74	1022.71
298.15 K	1003.21	1006.3	1009.4	1012.46	1015.48	1018.46	1021.43
303.15 K	1001.79	1004.87	1007.95	1010.98	1013.99	1016.97	1019.92
308.15 K	1000.12	1003.19	1006.23	1009.26	1012.25	1015.19	1018.13
313.15 K	998.283	1001.33	1004.36	1007.37	1010.33	1013.26	1016.18

[2]
Conditions	refractive index
m1 = 0.1	1.3358
m1 = 0.1499	1.337
m1 = 0.1999	1.3385
m1 = 0.25	1.3396
m1 = 0.3	1.341
m1 = 0.35	1.3422
m1 = 0.4	1.343

CCCO [propan-1-ol] + O
mass density [kg/m3], [1]
Conditions	m1 = 0.1001	m1 = 0.15	m1 = 0.2	m1 = 0.3	m1 = 0.4	m1 = 0.5
293.15 K	996.609	996.479	996.336	995.903	994.27	993.364
298.15 K	995.441	995.293	995.163	994.694	993.072	992.148
303.15 K	994.029	993.828	993.747	993.242	991.629	990.687
308.15 K	992.397	992.237	992.113	991.569	989.962	989.004
313.15 K	990.564	990.399	990.278	989.694	988.093	987.114

[2]
Conditions	refractive index
m1 = 0.1001	1.3331
m1 = 0.15	1.3338
m1 = 0.2	1.3341
m1 = 0.3	1.3344
m1 = 0.4	1.3349
m1 = 0.5	1.3353

CC(C)O [propan-2-ol] + O
mass density [kg/m3], [1]
Conditions	m1 = 0.1	m1 = 0.1501	m1 = 0.1999	m1 = 0.3	m1 = 0.3998	m1 = 0.5
293.15 K	996.544	995.924	995.4	994.591	993.922	993.065
298.15 K	995.386	994.764	994.22	993.429	992.857	991.893
303.15 K	993.986	993.358	992.795	992.018	991.441	990.472
308.15 K	992.365	991.731	991.148	990.384	989.702	988.826
313.15 K	990.542	989.901	989.299	988.545	987.816	986.979

[2]
Conditions	refractive index
m1 = 0.1	1.3329
m1 = 0.1501	1.3335
m1 = 0.1999	1.3338
m1 = 0.3	1.3341
m1 = 0.3998	1.3345
m1 = 0.5	1.335

O [water] + OC[C@@H](O)[C@@H](O)[C@H](O)[C@H](O)CO
Conditions	refractive index
[2], m2 = 0	1.3326
